ChEMBL document CHEMBL5728323, “1,4,5-substituted 1,2,3-triazole analogues as antagonists of the pregnane X receptor” (2021)

Tests used:
[1] = Briefly, various concentrations (1-to-3 series dilutions for 10 concentration levels from 40 μM with 0.5% final DMSO concentration) of hPXR agonist rifampicin, various concentrations of tested chemicals alone or combined with 5 μM of rifampicin, were added to the wells of white 384-well tissue culture-treated plates with 5,000 cells in 25 μl of phenol red-free DMEM supplemented with 5% charcoal/dextran-treated FBS and incubated for 24 h at 37° C. before luciferase assay using Steadylite HTS (PerkinElmer Life Sciences).; assay type: cell-based; conditions: HepG2

IC50 [1]: 3100 nM
IC50: 790 nM
SMILES: COc1ccc(OC)c(-c2nc(C)c(C(=O)c3ccc(C(C)(C)C)cc3)n2C)c1
